Data taken from ChEMBL document CHEMBL1201861, “Genomics of Drug Sensitity in Cancer screening data, Wellcome Trust Sanger Institute”.
pIC50: −log10 of the molar value.

Tests used:
VMRC-RCZ = experiment: cells; format: functional, cell-based; conditions: Homo sapiens
Description: SANGER: Inhibition of human VMRC-RCZ cell growth in a cell viability assay.

NCCIT = experiment: SANGER: Inhibition of human NCCIT cell growth in a cell viability assay.; format: functional, cell-based
T-24 = experiment: cells; format: functional, cell-based; conditions: Homo sapiens;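 also: growth inhibition of T-24 cells, read out with a cell viability assay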
Description: SANGER: Inhibition of human T-24 cell growth in a cell viability assay.

ARH-77 = experiment: cells; format: functional, cell-based; conditions: Homo sapiens;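 also: growth inhibition of ARH-77 cells, read out by a cell viability assay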
Description: SANGER: Inhibition of human ARH-77 cell growth in a cell viability assay.

GMS-10 = experiment: cells; format: functional, cell-based; conditions: Homo sapiens;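 also: growth inhibition of GMS-10 cells, read out as cell viability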
Description: SANGER: Inhibition of human GMS-10 cell growth in a cell viability assay.

MEL-HO = experiment: cells; format: functional, cell-based; conditions: Homo sapiens
Description: SANGER: Inhibition of human MEL-HO cell growth in a cell viability assay.

HT-1376 = experiment: cells; format: functional, cell-based; conditions: Homo sapiens
Description: SANGER: Inhibition of human HT-1376 cell growth in a cell viability assay.

HN = experiment: cells; format: functional, cell-based; conditions: Homo sapiens
Description: SANGER: Inhibition of human HN cell growth in a cell viability assay.

639-V = experiment: cells; format: functional, cell-based; conditions: Homo sapiens;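 also: growth inhibition of 639-V cells, read out with a cell viability assay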
Description: SANGER: Inhibition of human 639-V cell growth in a cell viability assay.

SUP-T1 = experiment: cells; format: functional, cell-based; conditions: Homo sapiens;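 also: growth inhibition of human SUP-T1 cells, read out as cell viability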
Description: SANGER: Inhibition of human SUP-T1 cell growth in a cell viability assay.

NCI-H441 = experiment: cells; format: functional, cell-based; conditions: Homo sapiens;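 also: growth inhibition of NCI-H441 cells, read out with a cell viability assay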
Description: SANGER: Inhibition of human NCI-H441 cell growth in a cell viability assay.

OPM-2 = experiment: cells; format: functional, cell-based; conditions: Homo sapiens;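 also: growth of OPM-2 cells measured with a viability assay, IC50 for suppression of proliferation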
Description: SANGER: Inhibition of human OPM-2 cell growth in a cell viability assay.

DU-145 = experiment: cells; format: functional, cell-based; conditions: Homo sapiens
Description: SANGER: Inhibition of human DU-145 cell growth in a cell viability assay.

TYK-nu = experiment: cells; format: functional, cell-based; conditions: Homo sapiens;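 also: growth inhibition of human TYK-nu cells, read out by a cell viability assay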
Description: SANGER: Inhibition of human TYK-nu cell growth in a cell viability assay.

CAMA-1 = experiment: cells; format: functional, cell-based; conditions: Homo sapiens;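 also: growth inhibition of CAMA-1 cells, read out with a cell viability assay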
Description: SANGER: Inhibition of human CAMA-1 cell growth in a cell viability assay.

G-402 = experiment: cells; format: functional, cell-based; conditions: Homo sapiens
Description: SANGER: Inhibition of human G-402 cell growth in a cell viability assay.

NALM-6 = experiment: cells; format: functional, cell-based; conditions: Homo sapiens;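 also: growth inhibition of NALM-6 cells, read out with a cell viability assay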
Description: SANGER: Inhibition of human NALM-6 cell growth in a cell viability assay.

SNU-449 = experiment: cells; format: functional, cell-based; conditions: Homo sapiens
Description: SANGER: Inhibition of human SNU-449 cell growth in a cell viability assay.

NCI-H1573 = experiment: cells; format: functional, cell-based; conditions: Homo sapiens;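 also: growth inhibition of NCI-H1573 cells, read out with a cell viability assay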
Description: SANGER: Inhibition of human NCI-H1573 cell growth in a cell viability assay.

HuCCT-1 = experiment: cells; format: functional, cell-based, HuCCT1; conditions: Homo sapiens;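 also: growth inhibition of HuCCT-1 cells, read out by a cell viability assay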
Description: SANGER: Inhibition of human HuCCT1 cell growth in a cell viability assay.

HuP-T3 = experiment: cells; format: functional, cell-based; conditions: Homo sapiens;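 also: HuP-T3 cell growth inhibition, read out with a cell viability assay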
Description: SANGER: Inhibition of human HuP-T3 cell growth in a cell viability assay.

UO-31 = experiment: cells; format: functional, cell-based; conditions: Homo sapiens
Description: SANGER: Inhibition of human U031 cell growth in a cell viability assay.

GDM-1 = experiment: cells; format: functional, cell-based; conditions: Homo sapiens;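 also: cell viability readout used to measure growth inhibition of human GDM-1 cells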
Description: SANGER: Inhibition of human GDM-1 cell growth in a cell viability assay.

SK-MEL3 = experiment: cells; format: functional, cell-based, SK-MEL-3; conditions: Homo sapiens;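 also: growth inhibition of human SK-MEL-3 cells, read out with a cell viability assay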
Description: SANGER: Inhibition of human SK-MEL-3 cell growth in a cell viability assay.

WSU-NHL = experiment: cells; format: functional, cell-based; conditions: Homo sapiens;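 also: growth inhibition of human WSU-NHL cells, read out with a cell viability assay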
Description: SANGER: Inhibition of human WSU-NHL cell growth in a cell viability assay.

FTC-133 = experiment: cells; format: functional, cell-based; conditions: Homo sapiens
HCT-116 = experiment: cells; format: functional, cell-based; conditions: Homo sapiens
Description: SANGER: Inhibition of human HCT-116 cell growth in a cell viability assay.

A 172 = experiment: cells; format: functional, cell-based; conditions: Homo sapiens;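 also: growth inhibition of A172 cells, measured with a cell viability readout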
Description: SANGER: Inhibition of human A172 cell growth in a cell viability assay.

BL-70 = experiment: SANGER: Inhibition of human BL-70 cell growth in a cell viability assay.; format: functional, cell-based
U2OS = experiment: cells; format: functional, cell-based, U-2-OS; conditions: Homo sapiens;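 also: growth inhibition of human U-2-OS cells, determined with a cell viability assay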
Description: SANGER: Inhibition of human U-2-OS cell growth in a cell viability assay.

SW780 = experiment: cells; format: functional, cell-based; conditions: Homo sapiens;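 also: growth inhibition of the cells, read out with a cell viability assay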
Description: SANGER: Inhibition of human SW780 cell growth in a cell viability assay.

BFTC-905 = experiment: cells; format: functional, cell-based; conditions: Homo sapiens
Description: SANGER: Inhibition of human BFTC-905 cell growth in a cell viability assay.

DK-MG = experiment: cells; format: functional, cell-based; conditions: Homo sapiens;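 also: growth inhibition of DK-MG cells, read out with a cell viability assay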
Description: SANGER: Inhibition of human DK-MG cell growth in a cell viability assay.

SAS = experiment: cells; format: functional, cell-based; conditions: Homo sapiens;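 also: growth inhibition of SAS cells, read out with a cell viability assay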
Description: SANGER: Inhibition of human SAS cell growth in a cell viability assay.

MHH-ES-1 = experiment: cells; format: functional, cell-based; conditions: Homo sapiens
Description: SANGER: Inhibition of human MHH-ES-1 cell growth in a cell viability assay.

CAL-85-1 = experiment: cells; format: functional, cell-based; conditions: Homo sapiens;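 also: growth inhibition of human CAL-85-1 cells, read out with a cell viability assay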
Description: SANGER: Inhibition of human CAL-85-1 cell growth in a cell viability assay.

CAL-33 = experiment: cells; format: functional, cell-based; conditions: Homo sapiens;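 also: growth inhibition of CAL-33 cells, read out with a cell viability assay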
Description: SANGER: Inhibition of human CAL-33 cell growth in a cell viability assay.

KARPAS-422 = experiment: cells; format: functional, cell-based; conditions: Homo sapiens
Description: SANGER: Inhibition of human KARPAS-422 cell growth in a cell viability assay.

COLO-678 = experiment: cells; format: functional, cell-based; conditions: Homo sapiens
Description: SANGER: Inhibition of human COLO-678 cell growth in a cell viability assay.

CHP-212 = experiment: cells; format: functional, cell-based; conditions: Homo sapiens
Description: SANGER: Inhibition of human CHP-212 cell growth in a cell viability assay.

HTC-C3 = experiment: cells; format: functional, cell-based; conditions: Homo sapiens;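 also: inhibition of cell growth, read out with a cell viability assay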
Description: SANGER: Inhibition of human HTC-C3 cell growth in a cell viability assay.

RPMI-7951 = experiment: cells; format: functional, cell-based; conditions: Homo sapiens
Description: SANGER: Inhibition of human RPMI-7951 cell growth in a cell viability assay.

HEC-1 = experiment: cells; format: functional, cell-based; conditions: Homo sapiens;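 also: growth inhibition of the cell line, read out with a cell viability assay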
Description: SANGER: Inhibition of human HEC-1 cell growth in a cell viability assay.

GP5d = experiment: cells; format: functional, cell-based; conditions: Homo sapiens;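 also: growth inhibition of human GP5d cells, read out with a cell viability assay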
Description: SANGER: Inhibition of human GP5d cell growth in a cell viability assay.

KP-N-YN = experiment: cells; format: functional, cell-based; conditions: Homo sapiens;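 also: growth inhibition of KP-N-YN cells, read out with a cell viability assay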
Description: SANGER: Inhibition of human KP-N-YN cell growth in a cell viability assay.

CAPAN-1 = experiment: cells; format: functional, cell-based; conditions: Homo sapiens;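 also: growth suppression of CAPAN-1 cells, read out by a cell viability assay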
Description: SANGER: Inhibition of human CAPAN-1 cell growth in a cell viability assay.

IGROV-1 = experiment: cells; format: functional, cell-based; conditions: Homo sapiens;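 also: reduction of IGROV-1 cell growth, read out with a viability assay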
Description: SANGER: Inhibition of human IGROV-1 cell growth in a cell viability assay.

CAL-54 = experiment: cells; format: functional, cell-based; conditions: Homo sapiens;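 also: growth inhibition of CAL-54 cells, read out by a viability measurement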
Description: SANGER: Inhibition of human CAL-54 cell growth in a cell viability assay.

C3A = experiment: cells; format: functional, cell-based; conditions: Homo sapiens;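 also: growth inhibition of C3A human cells, quantified with a cell viability readout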
Description: SANGER: Inhibition of human C3A cell growth in a cell viability assay.

HCC70 = experiment: cells; format: functional, cell-based; conditions: Homo sapiens;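 also: cell viability assay measuring how strongly the compound suppresses proliferation of HCC70 cells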
Description: SANGER: Inhibition of human HCC70 cell growth in a cell viability assay.

NCI-H2087 = experiment: cells; format: functional, cell-based; conditions: Homo sapiens;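 also: growth inhibition determined with a cell viability readout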
Description: SANGER: Inhibition of human NCI-H2087 cell growth in a cell viability assay.

BHT-101 = experiment: cells; format: functional, cell-based; conditions: Homo sapiens
Description: SANGER: Inhibition of human BHT-101 cell growth in a cell viability assay.

HT-29 = experiment: cells; format: functional, cell-based; conditions: Homo sapiens;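 also: growth inhibition of human HT-29 cells, read out by a cell viability assay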
Description: SANGER: Inhibition of human HT-29 cell growth in a cell viability assay.

Panc1005 = experiment: cells; format: functional, cell-based; conditions: Homo sapiens;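 also: growth inhibition of human PANC-10-05 cells, measured by a cell viability assay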
Description: SANGER: Inhibition of human PANC-10-05 cell growth in a cell viability assay.

23132-87 = experiment: cells; format: functional, cell-based; conditions: Homo sapiens
Description: SANGER: Inhibition of human 23132-87 cell growth in a cell viability assay.

NCI-H460 = experiment: cells; format: functional, cell-based; conditions: Homo sapiens;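 also: cell viability assay scoring growth inhibition of human NCI-H460 cells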
Description: SANGER: Inhibition of human NCI-H460 cell growth in a cell viability assay.

SR = experiment: cells; format: functional, cell-based; conditions: Homo sapiens
Description: SANGER: Inhibition of human SR cell growth in a cell viability assay.

HSC-3 = experiment: cells; format: functional, cell-based; conditions: Homo sapiens
Description: SANGER: Inhibition of human HSC-3 cell growth in a cell viability assay.

Daoy = experiment: cells; format: functional, cell-based; conditions: Homo sapiens;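 also: daoy cell growth inhibition, read out as cell viability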
Description: SANGER: Inhibition of human Daoy cell growth in a cell viability assay.

Detroit 562 = experiment: cells; format: functional, cell-based; conditions: Homo sapiens;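 also: growth inhibition of human Detroit 562 cells, read out by a cell viability assay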
Description: SANGER: Inhibition of human Detroit562 cell growth in a cell viability assay.

MeWo = experiment: cells; format: functional, cell-based; conditions: Homo sapiens;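 also: growth inhibition of MeWo cells, determined by a cell viability readout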
Description: SANGER: Inhibition of human Mewo cell growth in a cell viability assay.

SCC-9 = experiment: cells; format: functional, cell-based; conditions: Homo sapiens;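 also: Read-out is a cell viability assay, with values giving inhibition of cell growth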
Description: SANGER: Inhibition of human SCC-9 cell growth in a cell viability assay.

MDA-MB-415 = experiment: cells; format: functional, cell-based; conditions: Homo sapiens

C/C(O)=C(\C#N)C(=O)Nc1cc(Br)ccc1Br was tested, and the pIC50 (VMRC-RCZ) was < 4.80, the pIC50 (NCCIT) was < 4.80 and the pIC50 (T-24) was < 4.80. The pIC50 (ARH-77) was < 4.80, the pIC50 (GMS-10) was < 4.80 and the pIC50 (MEL-HO) was < 4.80. For the same molecule, the pIC50 (HT-1376) was < 4.80, the pIC50 (HN) was < 4.80 and the pIC50 (639-V) was < 4.80. For the same molecule, the pIC50 (SUP-T1) was < 4.80, the pIC50 (NCI-H441) was < 4.80 and the pIC50 (OPM-2) was < 4.80. The pIC50 (DU-145) was < 4.80, the pIC50 (TYK-nu) was < 4.80 and the pIC50 (CAMA-1) was < 4.80. The pIC50 (G-402) was < 4.80, the pIC50 (NALM-6) was < 4.80 and the pIC50 (SNU-449) was < 4.80. For the same molecule, the pIC50 (NCI-H1573) was < 4.80, the pIC50 (HuCCT-1) was < 4.80 and the pIC50 (HuP-T3) was < 4.80. The pIC50 (UO-31) was < 4.80, the pIC50 (GDM-1) was < 4.80 and the pIC50 (SK-MEL3) was < 4.80. For the same molecule, the pIC50 (WSU-NHL) was < 4.80, the pIC50 (FTC-133) was < 4.80 and the pIC50 (HCT-116) was < 4.80. For the same molecule, the pIC50 (A 172) was < 4.80, the pIC50 (BL-70) was < 4.80 and the pIC50 (U2OS) was < 4.80. The pIC50 (SW780) was < 4.80, the pIC50 (BFTC-905) was < 4.80 and the pIC50 (DK-MG) was < 4.80. The pIC50 (SAS) was < 4.80, the pIC50 (MHH-ES-1) was < 4.80 and the pIC50 (CAL-85-1) was < 4.80. For the same molecule, the pIC50 (CAL-33) was < 4.80, the pIC50 (KARPAS-422) was < 4.80 and the pIC50 (COLO-678) was < 4.80. The pIC50 (CHP-212) was < 4.80, the pIC50 (HTC-C3) was < 4.80 and the pIC50 (RPMI-7951) was < 4.80. For the same molecule, the pIC50 (HEC-1) was < 4.80, the pIC50 (GP5d) was < 4.80 and the pIC50 (KP-N-YN) was < 4.80. The pIC50 (CAPAN-1) was < 4.80, the pIC50 (IGROV-1) was < 4.80 and the pIC50 (CAL-54) was < 4.80. The pIC50 (C3A) was < 4.80, the pIC50 (HCC70) was < 4.80 and the pIC50 (NCI-H2087) was < 4.80. The pIC50 (BHT-101) was < 4.80, the pIC50 (HT-29) was < 4.80 and the pIC50 (Panc1005) was < 4.80. For the same molecule, the pIC50 (23132-87) was < 4.80, the pIC50 (NCI-H460) was < 4.80 and the pIC50 (SR) was < 4.80. For the same molecule, the pIC50 (HSC-3) was < 4.80, the pIC50 (Daoy) was < 4.80 and the pIC50 (Detroit 562) was < 4.80. The pIC50 (MeWo) was < 4.80, the pIC50 (SCC-9) was < 4.80 and the pIC50 (MDA-MB-415) was < 4.80.
CCNC(=O)c1noc(-c2cc(C(C)C)c(O)cc2O)c1-c1ccc(CN2CCOCC2)cc1 [LUMINESPIB] was tested, and the pIC50 (VMRC-RCZ) was 7.78, the pIC50 (NCCIT) was 7.18 and the pIC50 (T-24) was 7.27. The pIC50 (ARH-77) was 7.27, the pIC50 (GMS-10) was 6.87 and the pIC50 (MEL-HO) was 7.78. For the same molecule, the pIC50 (HT-1376) was 7.01, the pIC50 (HN) was 7.59 and the pIC50 (639-V) was 8.31. For the same molecule, the pIC50 (SUP-T1) was 7.17, the pIC50 (NCI-H441) was 6.96 and the pIC50 (OPM-2) was < 6.59. For the same molecule, the pIC50 (DU-145) was 7.89, the pIC50 (TYK-nu) was < 6.59 and the pIC50 (CAMA-1) was 7.20. For the same molecule, the pIC50 (G-402) was 7.44, the pIC50 (NALM-6) was 9.07 and the pIC50 (SNU-449) was 7.69. The pIC50 (NCI-H1573) was 6.75, the pIC50 (HuCCT-1) was 7.53 and the pIC50 (HuP-T3) was 7.78. For the same molecule, the pIC50 (UO-31) was 7.32, the pIC50 (GDM-1) was 8.08 and the pIC50 (SK-MEL3) was 7.32. For the same molecule, the pIC50 (WSU-NHL) was 7.13, the pIC50 (FTC-133) was < 6.59 and the pIC50 (HCT-116) was 6.82. It also gave a pIC50 (A 172) of 7.40, a pIC50 (BL-70) of 7.47 and a pIC50 (U2OS) of 7.41. The pIC50 (SW780) was < 6.59, the pIC50 (BFTC-905) was 8.03 and the pIC50 (DK-MG) was 7.12. For the same molecule, the pIC50 (SAS) was 7.04, the pIC50 (MHH-ES-1) was 7.90 and the pIC50 (CAL-85-1) was 7.92. The pIC50 (CAL-33) was 7.36, the pIC50 (KARPAS-422) was 6.85 and the pIC50 (COLO-678) was < 6.59. It also gave a pIC50 (CHP-212) of 7.66, a pIC50 (HTC-C3) of 7.58 and a pIC50 (RPMI-7951) of 8.20. For the same molecule, the pIC50 (HEC-1) was 7.15, the pIC50 (GP5d) was 7.56 and the pIC50 (KP-N-YN) was < 6.59. For the same molecule, the pIC50 (CAPAN-1) was 7.15, the pIC50 (IGROV-1) was 8.09 and the pIC50 (CAL-54) was < 6.59. For the same molecule, the pIC50 (C3A) was 7.61, the pIC50 (HCC70) was 7.26 and the pIC50 (NCI-H2087) was 7.48. The pIC50 (BHT-101) was 7.23, the pIC50 (HT-29) was 7.36 and the pIC50 (Panc1005) was 7.76. For the same molecule, the pIC50 (23132-87) was 6.98, the pIC50 (NCI-H460) was 7.87 and the pIC50 (SR) was 7.56. The pIC50 (HSC-3) was 8.19, the pIC50 (Daoy) was 8.16 and the pIC50 (Detroit 562) was 7.41. For the same molecule, the pIC50 (MeWo) was < 6.59, the pIC50 (SCC-9) was 7.23 and the pIC50 (MDA-MB-415) was 6.70.
